Patent publication US6943253B2, “6-phenylpyrrolopyrimidinedione derivatives” (Almirall Prodesfarma S.A., priority 2000, dated 2005)

Biological target: T1, cyclic GMP specific phosphodiesterase (PDE 5) (Homo sapiens, UniProt O76074)
T1 construct: isolated from human platelet lysates by ion exchange chromatography using a Mono-Q column; from tissue; host or cells: human platelets (lysate, Mono-Q ion exchange fraction)
Assay: PDE 5 inhibitory activity, enzyme isolated from human platelet lysates
Assay type: biochemical
Conditions: PDE 5 from human platelet lysates; 0.25 mM [3H]-cyclic GMP as substrate; read-out: IC50 PDE5
Method: The cyclic GMP specific phosphodiesterase (PDE 5) was isolated from human platelet lysates by ion exchange chromatography using a Mono-Q column. The enzyme activity was determined using 0.25 mM [3H]-cyclic GMP as substrate. The purification of the enzyme and the assessment of the PDE 5 inhibitory activity of our compounds were performed essentially as described by R. W. Gristwood et al., Br. J. Pharmacol. 1992, 105:985-991.

Structure (SMILES) | IC50
CCCOc1ccc(S(=O)(=O)N2CCN(C)CC2)cc1-c1cc2c([nH]1)c(=O)n(C)c(=O)n2CCC [Example 12, 3-Methyl-6-[5-(4-methylpiperazine-1-sulphonyl)-2-propoxyphenyl]-1-propyl-1,5-dihydropyrrolo[3,2-d]pyrimidine-2,4-dione] | 14 nM
CCCOc1ccc(S(=O)(=O)N2CCN(CCO)CC2)cc1-c1[nH]c2c(=O)n(C)c(=O)n(CCC)c2c1Br [Example 55, 7-Bromo-6-{5-[4-(2-hydroxyethyl)piperazine-1-sulfonyl]-2-propoxyphenyl}-3-methyl-1-propyl-1,5-dihydropyrrolo[3,2-d]pyrimidine-2,4-dione] | 6.6 nM
CCCOc1ccc(S(=O)(=O)N2CCN(CC)CC2)cc1-c1cc2c([nH]1)c(=O)n(C)c(=O)n2CCC [Example 13, 6-[5-(4-Ethylpiperazine-1-sulphonyl)-2-propoxyphenyl]-3-methyl-1-propyl-1,5-dihydropyrrolo[3,2-d]pyrimidine-2,4-dione] | 8 nM
CCCOc1ccc(S(=O)(=O)N2CCN(C)CC2)cc1-c1[nH]c2c(=O)n(C)c(=O)n(CCC)c2c1Br [Example 50, 7-Bromo-3-methyl-6-[5-(4-methylpiperazine-1-sulfonyl)-2-propoxyphenyl]-1-propyl-1,5-dihydropyrrolo[3,2-d]pyrimidine-2,4-dione] | 4.5 nM
CCCn1c(=O)n(C)c(=O)c2[nH]c(-c3cc(S(=O)(=O)N4CCN(CCCO)CC4)ccc3OCC)c(Br)c21 [Example 47, 7-Bromo-6-{2-ethoxy-5-[4-(3-hydroxypropyl)piperazine-1-sulfonyl]phenyl}-3-methyl-1-propyl-1,5-dihydropyrrolo[3,2-d]pyrimidine-2,4-dione] | 9.2 nM

Now those with a lower IC50, led by results:

IC50 | Structure (SMILES)
3.4 nM | CCCn1c(=O)n(C)c(=O)c2[nH]c(-c3cc(S(=O)(=O)N4CCN(C)CC4)ccc3OCC)c(Cl)c21 [Example 27, 7-Chloro-6-[2-ethoxy-5-(4-methylpiperazine-1-sulfonyl)phenyl]-3-methyl-1-propyl-1,5-dihydropyrrolo[3,2-d]pyrimidine-2,4-dione]
3.6 nM | CCCOc1ccc(S(=O)(=O)N2CCN(CC)CC2)cc1-c1[nH]c2c(=O)n(C)c(=O)n(CCC)c2c1Cl [Example 34, 7-Chloro-6-[5-(4-ethylpiperazine-1-sulfonyl)-2-propoxyphenyl]-3-methyl-1-propyl-1,5-dihydropyrrolo[3,2-d]pyrimidine-2,4-dione]
4 nM | CCCOc1ccc(S(=O)(=O)N2CCN(CCCO)CC2)cc1-c1[nH]c2c(=O)n(C)c(=O)n(CCC)c2c1Br [Example 57, 7-Bromo-6-{5-[4-(3-hydroxypropyl)piperazine-1-sulfonyl]-2-propoxyphenyl}-3-methyl-1-propyl-1,5-dihydropyrrolo[3,2-d]pyrimidine-2,4-dione]
4.2 nM | CCCOc1ccc(S(=O)(=O)N2CCN(C)CC2)cc1-c1[nH]c2c(=O)n(C)c(=O)n(CCC)c2c1Cl [Example 33, 7-Chloro-3-methyl-6-[5-(4-methylpiperazine-1-sulfonyl)-2-propoxyphenyl]-1-propyl-1,5-dihydropyrrolo[3,2-d]pyrimidine-2,4-dione]
3.4 nM | CCCOc1ccc(S(=O)(=O)N2CCN(CCO)CC2)cc1-c1[nH]c2c(=O)n(C)c(=O)n(CCC)c2c1Cl [Example 35, 7-Chloro-6-{5-[4-(2-hydroxyethyl)piperazine-1-sulfonyl]-2-propoxyphenyl}-3-methyl-1-propyl-1,5-dihydropyrrolo[3,2-d]pyrimidine-2,4-dione]
